Assay results published in patent US20260258084A1, “New Peptides as Selective IL-23 Receptor Antagonists” (Sanofi, priority 2022, published 2026).
Starred links: 1 amine or outer side, 2 acyl side, 3 side chain; linkers in the order of their positions; H or OH if unused. Positions of bridges follow the written chain, without caps; N, C: chain ends. Non-standard residues stand in square brackets, D forms with d. Residues, ends and D or L forms follow the SMILES beside them. *: point of attachment. X5 = CN(C(=O)CCC(=O)[*:3])[C@@H](CS[*:2])C(=O)[*:1]; Trp(7-Me) = Cc1cccc2c(C[C@H](N)C(=O)O)c[nH]c12; X1 = O=C(CCCCN[*:3])N[C@@H](CS[*:2])C(=O)[*:1]; αMeLys(Me2) = CN(C)CCCC[C@](C)(N)C(=O)O; 2Nal = N[C@@H](Cc1ccc2ccccc2c1)C(=O)O; d2Nal = N[C@H](Cc1ccc2ccccc2c1)C(=O)O; 3Pal = N[C@@H](Cc1cccnc1)C(=O)O; Lys(Me) = CNCCCC[C@H](N)C(=O)O; αMeL = CC(C)C[C@](C)(N)C(=O)O; Suc = O=C(CCC(=O)[*:2])[*:1]; Me2NCH2CH2 = CN(C)CC*; Aib = CC(C)(N)C(=O)O; Ava = NCCCCC(=O)O; Sar = CNCC(=O)O

Key:
[1] = biological target: T1, human interleukin-23 receptor (recombinant human IL-23R-Fc chimera) (Homo sapiens, UniProt Q5VWK5); test: Human ELISA IL23/IL23R (assay for specific human IL23R antagonists); assay type: binding; details: Table 10; read-out: Human ELISA IL23/IL23R IC50
T1 construct: Fc (IgG Fc fusion)
Summary of the method: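 Plates coated overnight at 4 °C with human IL23 ([…]), blocked, then serially diluted peptides added with recombinant human IL-23R-Fc (0.1 μg/ml final) for 60 min at room temperature. Bound receptor detected with anti-human IgG1-HRP and fluorogenic peroxidase substrate.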

[2] = test system: IL-23 induced STAT3 signaling in HEK-Blue™ IL-23 cells; test: IL-23 induced STAT3 signaling in HEK-Blue IL-23 cells (SEAP reporter); assay type: cell-based; details: human IL23 0.25 ng/ml, read-out: pSTAT3
Summary of the method: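 HEK-Blue IL-23 cells (10,000/well) pre-incubated 60 min at 37 °C with serially diluted peptides, then stimulated overnight with human IL-23 (0.25 ng/ml final). STAT3-driven SEAP in supernatant detected with QUANTI-Blue after 45 min at RT (OD 620-655 nm); dose-response curves fitted.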

Pepsin = test system: T2, Pepsin; test: Protease stability in simulated gastric fluid (Pepsin-SGF, FaSSGF); assay type: in vitro ADME; details: simulated gastric fluid with pepsin (Pepsin-SGF), 60 min, 1 μM peptide, 37° C., read-out: FaSSGF 60 (min), remaining percent of peptide
T2 construct: purchased Merck Millipore
Summary of the method: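 Peptides at 1 μM final in pepsin-containing SGF at 37° C, sampled at 0, 60, 120 and 240 min, quenched with ethanol (0.1% HCOOH). Analysed by LCMS/MS; percent remaining from peak area relative to time 0 (set to 100%).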

Pancreatin = test: Protease stability in simulated intestinal fluid (Pancreatin-SIF, FaSSIF); assay type: in vitro ADME; details: 1 μM peptide, 37° C.; for remaining at 1 h, 1 µM: 60 min, read-out: FaSSIF 60 (min), remaining percent of peptide; for remaining at 2 h, 1 µM: 120 min, read-out: FaSSIF 120 (min), remaining percent of peptide; for remaining at 4 h, 1 µM: 240 min, read-out: FaSSIF 240 (min), remaining percent of peptide
Summary of the method: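 Peptide (1 μM final) was incubated at 37° C in simulated intestinal fluid containing pancreatin (1 mg per 10 mL SIF concentrate). Samples were quenched with ethanol/0.1% HCOOH at 0, 60, 120 and 240 min and analysed by LC-MS/MS. Percent remaining is the peak area relative to time 0 (100%).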

Row | Compound | IC50 [1] | remaining at 1 h, 1 µM (Pepsin) | remaining at 1 h, 1 µM (Pancreatin) | remaining at 2 h, 1 µM (Pancreatin) | remaining at 4 h, 1 µM (Pancreatin) | IC50 [2]
1 | CC(=O)NCCCC[C@@H]1NC(=O)[C@H](Cc2c[nH]c3c(C)cccc23)NC(=O)[C@@H](NC(C)=O)CCCCNC(=O)[C@@H]2CSSC[C@H](NC1=O)C(=O)N[C@@H](Cc1ccc(OCCN(C)C)cc1)C(=O)N[C@@H](Cc1ccc3ccccc3c1)C(=O)NC(C)(C)C(=O)N[C@H](C(=O)N[C@@H](CC(N)=O)C(=O)N[C@@H](Cc1cccnc1)C(=O)N(C)CC(N)=O)CCC(=O)NCCCCC(=O)N2 [compound 72] (Ac-K[Trp(7-Me)]K(Ac)CY(Me2NCH2CH2)[2Nal][Aib]EN[3Pal][Sar]-NH2; linker 1-4-8 via X1) | 0.59 nM | 92% | 91% | 90% | 83% | 0.12 nM
2 | Cc1cccc2c(C[C@@H]3NC(=O)[C@H]([C@@H](C)O)NC(=O)[C@H](CC(N)=O)NC(=O)[C@@H]4CSSC[C@H](NC(=O)[C@H](CCC(N)=O)NC3=O)C(=O)N[C@@H](Cc3ccc(OCCN(C)C)cc3)C(=O)N[C@@H](Cc3ccc5ccccc5c3)C(=O)NC(C)(C)C(=O)N[C@H](C(=O)N[C@@H](CO)C(=O)N[C@@H](Cc3c[nH]cn3)C(N)=O)CCC(=O)NCCCCC(=O)N4)c[nH]c12 [compound 43] ([Ava]CNT[Trp(7-Me)]QCY(Me2NCH2CH2)[2Nal][Aib]ESH-NH2; disulfide 2-7; lactam N-11) | 0.33 nM | 100% | 83% | 72% | 67% | 1.31 nM
3 | CC[C@H](C)[C@H](NC(=O)[C@H](CC(N)=O)NC(=O)[C@H](CC(N)=O)NC(=O)[C@@H]1CCC(=O)NCCCCC(=O)N[C@H]2CSSC[C@H](NC(=O)[C@H](CCC(N)=O)NC(=O)[C@H](Cc3c[nH]c4ccccc34)NC(=O)[C@H]([C@@H](C)O)NC(=O)[C@H](CC(N)=O)NC2=O)C(=O)N[C@@H](Cc2ccc(OCCN(C)C)cc2)C(=O)N[C@@H](Cc2ccc3ccccc3c2)C(=O)NC(C)(C)C(=O)N1)C(N)=O [compound 57] ([Ava]CNTWQCY(Me2NCH2CH2)[2Nal][Aib]ENNI-NH2; disulfide 2-7; lactam N-11) | 0.23 nM | 61% | 95% | 80% | 52% | 5.5 nM
4 | Cc1cccc2c(C[C@@H]3NC(=O)[C@H]([C@@H](C)O)NC(=O)[C@H](CC(N)=O)NC(=O)[C@@H]4CSSC[C@H](NC(=O)[C@H](CCC(N)=O)NC3=O)C(=O)N[C@@H](Cc3ccc(OCCN(C)C)cc3)C(=O)N[C@@H](Cc3ccc5ccccc5c3)C(=O)NC(C)(C)C(=O)N[C@H](C(=O)N[C@@H](CC(N)=O)C(=O)N[C@@H](Cc3c[nH]cn3)C(N)=O)CCC(=O)NCCCCC(=O)N4)c[nH]c12 [compound 52] ([Ava]CNT[Trp(7-Me)]QCY(Me2NCH2CH2)[2Nal][Aib]ENH-NH2; disulfide 2-7; lactam N-11) | 0.5 nM | 102% | 81% | 76% | 65% | 1.25 nM
5 | C[C@@H](O)[C@@H]1NC(=O)[C@H](CC(N)=O)NC(=O)[C@@H]2CSSC[C@H](NC(=O)[C@H](CCC(N)=O)NC(=O)[C@H](Cc3c[nH]c4ccccc34)NC1=O)C(=O)N[C@@H](Cc1ccc(OCCN(C)C)cc1)C(=O)N[C@@H](Cc1ccc3ccccc3c1)C(=O)NC(C)(C)C(=O)N[C@H](C(=O)N[C@@H](CC(N)=O)C(=O)N[C@@H](CC(N)=O)C(N)=O)CCCCN(C)C(=O)CCC(=O)N2 [compound 25] | 0.59 nM | 74% | 71% | 52% | 45% | 39.2 nM
6 | CC(=O)NCCCC[C@@H]1NC(=O)[C@H](Cc2c[nH]c3ccccc23)NC(=O)[C@H]([C@@H](C)O)NC(=O)[C@H](CC(N)=O)NC(=O)[C@@H]2CSSC[C@H](NC1=O)C(=O)N[C@@H](Cc1ccc(OCCN(C)C)cc1)C(=O)N[C@@H](Cc1ccc3ccccc3c1)C(=O)N[C@@](C)(CCCCN(C)C)C(=O)N[C@H](C(=O)N[C@@H](CC(N)=O)C(=O)N[C@@H](Cc1cccnc1)C(=O)N(C)CC(N)=O)CCC(=O)NCCCCC(=O)N2 [compound 58] ([Ava]CNTWK(Ac)CY(Me2NCH2CH2)[2Nal][αMeLys(Me2)]EN[3Pal][Sar]-NH2; disulfide 2-7; lactam N-11) | 0.16 nM | 93% | 100% | 98% | 80% | 0.1 nM
7 | CC(=O)N[C@H]1CCCCNC(=O)[C@@H]2CSSC[C@H](NC(=O)[C@H](CC(C)C)NC(=O)[C@H](Cc3c[nH]c4c(C)cccc34)NC1=O)C(=O)N[C@@H](Cc1ccc(OCCN(C)C)cc1)C(=O)N[C@@H](Cc1ccc3ccccc3c1)C(=O)N[C@@](C)(CC(C)C)C(=O)N[C@H](C(=O)N[C@@H](C)C(=O)N[C@@H](Cc1cccnc1)C(=O)N(C)CC(N)=O)CCCCN(C)C(=O)CCC(=O)N2C [compound 70] (Ac-K[Trp(7-Me)]LCY(Me2NCH2CH2)[2Nal][αMeL][Lys(Me)]A[3Pal][Sar]-NH2; linker 1-4-8 via X5) | 2.07 nM | 78% | 94% | 90% | 87% | 3.94 nM

More lines, main results first:

Row | IC50 [1] | remaining at 1 h, 1 µM (Pepsin) | remaining at 1 h, 1 µM (Pancreatin) | remaining at 2 h, 1 µM (Pancreatin) | remaining at 4 h, 1 µM (Pancreatin) | Compound | IC50 [2]
8 | 0.56 nM | 89% | 75% | 73% | 67% | CC(=O)NCCCC[C@@H]1NC(=O)[C@H](Cc2c[nH]c3c(C)cccc23)NC(=O)[C@H]([C@@H](C)O)NC(=O)[C@H](CC(N)=O)NC(=O)[C@@H]2CSSC[C@H](NC1=O)C(=O)N[C@@H](Cc1ccc(OCCN(C)C)cc1)C(=O)N[C@@H](Cc1ccc3ccccc3c1)C(=O)N[C@@](C)(CC(C)C)C(=O)N[C@H](C(=O)N[C@@H](CC(N)=O)C(=O)N[C@@H](Cc1cccnc1)C(=O)N(C)CC(N)=O)CCCCNC(=O)CCC(=O)N2 [compound 103] (CNT[Trp(7-Me)]K(Ac)CY(Me2NCH2CH2)[2Nal][αMeL]KN[3Pal][Sar]-NH2; disulfide 1-6; linker N-10 via Suc) | 0.11 nM
9 | 0.7 nM | 98% | 98% | 98% | 98% | Cc1cccc2c(C[C@@H]3NC(=O)[C@H]([C@@H](C)O)NC(=O)[C@H](CC(N)=O)NC(=O)[C@@H]4CSSC[C@H](NC(=O)[C@H](CC(C)C)NC3=O)C(=O)N[C@@H](Cc3ccc(OCCN(C)C)cc3)C(=O)N[C@@H](Cc3ccc5ccccc5c3)C(=O)N[C@@](C)(CCCCN(C)C)C(=O)N[C@H](C(=O)N[C@@H](C)C(=O)N[C@@H](Cc3cccnc3)C(=O)N(C)CC(N)=O)CCCCNC(=O)CCC(=O)N4)c[nH]c12 [compound 155] (CNT[Trp(7-Me)]LCY(Me2NCH2CH2)[2Nal][αMeLys(Me2)]KA[3Pal][Sar]-NH2; disulfide 1-6; linker N-10 via Suc) | 0.1 nM
10 | 0.64 nM | 101% | 95% | 99% | 97% | CC(=O)NCCCC[C@@H]1NC(=O)[C@H](Cc2c[nH]c3c(C)cccc23)NC(=O)[C@@H](NC(C)=O)CCCCNC(=O)[C@@H]2CSSC[C@H](NC1=O)C(=O)N[C@@H](Cc1ccc(OCCN(C)C)cc1)C(=O)N[C@H](Cc1ccc3ccccc3c1)C(=O)N[C@@](C)(CCCCN(C)C)C(=O)N[C@H](C(=O)N[C@@H](CC(N)=O)C(=O)N[C@@H](Cc1cccnc1)C(=O)N(C)CC(N)=O)CCC(=O)NCCCCC(=O)N2 [compound 149] (Ac-K[Trp(7-Me)]K(Ac)CY(Me2NCH2CH2)[d2Nal][αMeLys(Me2)]EN[3Pal][Sar]-NH2; linker 1-4-8 via X1) | 0.04 nM
11 | 0.38 nM | 99% | 100% | 100% | 98% | Cc1cccc2c(C[C@@H]3NC(=O)[C@H]([C@@H](C)O)NC(=O)[C@H](CC(N)=O)NC(=O)[C@@H]4CSSC[C@H](NC(=O)[C@H](CCC(N)=O)NC3=O)C(=O)N[C@@H](Cc3ccc(OCCN(C)C)cc3)C(=O)N[C@@H](Cc3ccc5ccccc5c3)C(=O)N[C@@](C)(CCCCN(C)C)C(=O)N[C@H](C(=O)N[C@@H](CC(N)=O)C(=O)N[C@@H](Cc3cccnc3)C(=O)N(C)CC(N)=O)CCCCNC(=O)CCC(=O)N4)c[nH]c12 [compound 152] (CNT[Trp(7-Me)]QCY(Me2NCH2CH2)[2Nal][αMeLys(Me2)]KN[3Pal][Sar]-NH2; disulfide 1-6; linker N-10 via Suc) | 0.04 nM
